The values that follow come from patent EP1076064A1, “NOVEL ASPARTAME DERIVATIVE CRYSTAL AND PROCESS FOR PRODUCING THE SAME” (Ajinomoto Co., Inc., priority 1998, dated 1999).

Series [1] is described as follows: Measurement of the dissolution rate for the dried crystals (dissolution tester). The format is physicochemical. The conditions noted are these: 0.5 g crystals in 900 ml ion exchanged water kept at 20 °C, stirring 100 rpm. As for the experimental part:
The dissolution rates of the A-type crystals (Reference Example 4 (b)) and the D-type crystals (Example 1) were determined in the following method. The apparatus used was "DISSOLUTION TESTER" (NTR-6100) manufactured by Toyama Sangyo K. K. 0.5 g each of the A-type crystals and D-type crystals were introduced into 900 ml ion exchanged water kept at 20 °C at a stirring in the number of revolution of 100 rpm, and the time which elapsed until the crystals came to be completely dissolved was measured.

For series [2] the following is noted: cited from earlier work.

With `COC(=O)[C@H](Cc1ccccc1)NC(=O)[C@H](CC(=O)O)NCCC(C)(C)C` [A-type crystals, N-[N-(3,3-dimethylbutyl)-L-α-aspartyl]-L-phenylalanine methyl ester, reference compound], the “time which elapsed until the crystals came to be completely dissolved” value in series [1] was “about 35 minutes”.

For the compound `COC(=O)[C@H](Cc1ccccc1)NC(=O)[C@H](CC(=O)O)NCCC(C)(C)C` [D-type crystals, N-[N-(3,3-dimethylbutyl)-L-α-aspartyl]-L-phenylalanine methyl ester], the “time which elapsed until the crystals came to be completely dissolved” value in series [1] is recorded as “about 5 minutes”.

Turning to `COC(=O)[C@H](Cc1ccccc1)NC(=O)[C@H](CC(=O)O)NCCC(C)(C)C` [N-(3,3-dimethylbutyl)-APM, N-[N-(3,3-dimethylbutyl)-L-α-aspartyl]-L-phenylalanine methyl ester], the “efficacy of sweetness relative to Aspartame” value in series [2] (in weight ratio, versus Aspartame) is given as “at least 50 times”. Besides, in series [2] (versus sucrose (table sugar)), the “efficacy of sweetness relative to sucrose (table sugar)” value was “about 10,000 times”.
